Where no end group is shown, it is not given here.

Data on two compounds can be found in paper PMC7377361, “Pressurized DNA state inside herpes capsids—A novel antiviral target” (PLoS Pathogens, 2020).

The test system of experiment [1] is GFP-labeled HSV-1 virions. In words: Binding of GFP-HSV-1 virions to the cell surface (confocal FM). In kind it is cell-based. Particulars: compound added to cell culture, then GFP-labeled HSV-1 virions. An excerpt: This likely occurs due to compounds’ high positive charge leading to electrostatic binding of polycations to negatively charged glycoprotein receptors on the cell membrane, such as heparansulfate proteoglycans (HSPG)[75]. Optimizing compound permeability into cells can be facilitated by e.g. prodrug approach, lipid vesicle delivery, and nanoparticle delivery, as well as other pathways. Compound permeability will be optimized in the future. […] Furthermore, choosing a reconstituted nuclei system for the MOA-assay (as opposed to infecting a cell culture) provides the benefit of isolating the effect of the compound on the single step of viral DNA ejection while avoiding interference from other processes occurring within the cell during viral replication.
Vero cell monolayers grown on chamber slides (Lab-Tek) were infected with a GFP-expressing HSV-1(K26GFP) at a MOI of 0.1 PFU per cell. Vero cells were also incubated with the same virus that was previously treated with different concentrations of the compounds to condense the viral DNA. The concentration of the compounds was calculated as described above. […]
Supplementary file ppat.1008604.s003.pdf: S2 Fig Effect of the compounds on the binding of HSV-1 virions to the cell surface during infection. […] Cells were fixed at 2 hpi and assessed by the presence of a GFP virus signal (green). […]

The next experiment has as its system NPC. In words: Nuclear import assay (GST-NLS-EGFP) in isolated rat liver nuclei. The class given is biochemical. Particulars: cytosol and ATP regeneration system, 37 °C. How it is done: This was verified with a fluorescently labeled nuclear localization signal (NLS), added to purified rat liver nuclei incubated with cytosolic extracts (as a source of soluble import factors) supplemented with an ATP regeneration system, see Supporting Materials for experimental description and S4A Fig. These controls were also reproduced with a digitonin-permeabilized cell assay, which accurately recapitulates capsid-nucleus binding and nuclear import in living cells; see Supporting Materials and data shown in S4B Fig. In agreement with observations in the isolated nuclei system (Fig 3B), we also confirmed via a digitonin-permeabilized cell assay that none of the three compounds interfered with capsid-NPC binding in cells. Attachment of GFP-capsids to nuclei was visualized with SR-SIM (S4C Fig). The addition of WGA prevented capsid binding, showing capsid-NPC binding specificity (S4C Fig).
Rat liver cell nuclei were incubated with GST-NLS-EGFP at 37 °C for 40 min in CBB buffer containing: (i) rat liver cell cytosol, (ii) 1 mg/mL BSA, and (iii) ATP regeneration system. The complete binding mixture was loaded onto coverslips and processed for fluorescence imaging as described above. When indicated, nuclei were preincubated with the polyvalent cationic agents at the concentrations described above for 2 h before performing import assays. […]

For RRRRR [Arg^5+], the “virus adsorption to the cell” value in experiment [1] is “prevents virus adsorption to the cell”. Moreover, the “nuclear import of GST-NLS-GFP protein” value in the experiment on NPC is given as “not blocked”.

`NCCCN(CCCN)CCCCN(CCCN)CCCN` [DAB-Am-4]: the “virus adsorption to the cell” value in experiment [1] is “prevents virus adsorption to the cell”. The “nuclear import of GST-NLS-GFP protein” value in the experiment on NPC was “not blocked”.
